{
  "source": "paper PMC12818745",
  "about": "(ACS Chemical Neuroscience, 2025)",
  "key": {"Aβ42 peptide": {"target": "T1, Aβ42 peptide (Homo sapiens, UniProt P05067)", "T1 construct": "Synthetic Aβ42 (GenScript) was dissolved in hexafluoro-2-propanol (HFIP); purchased GenScript; host or cells: chemical synthesis", "T1 sequence (P05067 672-713 limits assumed)": "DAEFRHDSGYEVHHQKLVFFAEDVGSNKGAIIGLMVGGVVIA", "experiment": "TEM of Aβ42 fibril growth", "conditions": "Aβ42 10 μM, compound 50 μM, 6–48 h, 37 °C", "description": "We selected compound 11r for further investigation of its ability to interfere with the Aβ42 aggregation process in vitro. The decision was based on the structural potential of the chromeno[3,4-b]-xanthone scaffold, the encouraging results for 11r, and its overall profile in our preliminary studies. […] The morphological changes of Aβ42 species were assessed through transmission electron microscopy (TEM), in the presence and absence of 11r. […] In the absence of 11r (Figure , top panels), as early as 6 h of incubation at 37 °C, (white arrow), short (white arrowhead) and long fibrils were detected. As incubation progressed, long fibrils were more abundant, while other species became scarce, resulting in bundles of tangled fibrils after 48 h (Figure ).\nSynthetic Aβ42 (GenScript) was dissolved in hexafluoro-2-propanol (HFIP) (Merck) and left at room temperature (RT) for 48 h. Subsequently, the HFIP was removed using a stream of nitrogen, and the resulting powder was dissolved in dimethyl sulfoxide (DMSO) (Sigma-Aldrich) at a concentration of 2000 μM. […]\nThe βnalysis of the morphology and fibril formation of samples coincubated with Aβ42 (10 μM) (GenScript) and the selected compounds (50 μM) at different time-points (6, 12, 24, and 48 h) at 37 °C, was assessed through TEM. […]"}, "[1]": {"system": "Aβ42 aggregates in SH-SY5Y (SHwt) cells", "experiment": "Confocal microscopy (ThT) of Aβ42 aggregates in SH-SY5Y cells expressing APP695", "conditions": "25 μM compound with Aβ42 10 μM, 48 h", "protocol": "A stock solution of Aβ42 (GenScript) was prepared in DMSO to a concentration of 2000 μM. SH-SY5Y cells stably expressing wild-type APP695 (SHwt) were used. The cells were cultured in Dulbecco’s Modified Eagle Medium (DMEM, Gibco), supplemented with 10% of Fetal Bovine Serum (FBS, Sigma-Aldrich), and 2% of Pen-Strep-Glut (Gibco). […] 2.0 × 10^4 SH-WT cells were plated in 24-well plates and incubated for 24 h, in 12 ømm glass coverslips. […] Cells incubated with Aβ42 and 1% DMSO were used as the positive control. After this period, the medium was changed to fresh DMEM medium without FBS, and the cells were incubated for another 24 h. After the incubation period, cells were washed with PBS, fixed in 4% formaldehyde for 30 min, permeabilized with 0.2% Triton X-100 in PBS for 10 min and blocked with 1% BSA for 10 min. […] Cells were washed three times between each step. Coverslips with cells were mounted with CitiFluor MWL4–88 (Electron Microscopy Sciences)."}},
  "data": [
    {"smiles": "COc1ccc2c(=O)c3cc4c(cc3oc2c1)-c1cc(Cl)ccc1OC4", "note": "[Compound 11r, 2-Chloro-11-methoxy-6H,8H-chromeno[3,4-b]xanthen-8-one]", "values": [
      {"measurement": "Effect on Aβ42 fibril morphology (TEM)", "setting": "Aβ42 peptide", "result": "inhibiting Aβ42 fibrillogenesis"},
      {"measurement": "Reduction in intracellular Aβ42 aggregates (ThT fluorescence)", "setting": "[1]", "result": "approximately 70%"}
    ]}
  ]
}
